Where “and” joins values, the source holds several entries; their conditions need not be identical. Equal values may be shown once.
Columns and labels:
[1] = test system: breast cancer (MCF-7); assay: Antiproliferative MTT assay, MCF-7; type: cell-based; conditions: Homo sapiens, MCF7, MCF-7 breast cancer cells, read-out: Antiproliferative activity IC50 ± SEM, MCF-7
Procedure: (§1) The median inhibitory concentration (IC50) and GI50 (mean IC50) for the four cancer cell lines were calculated. Appendix A ^† contains more details. […]

[2] = test system: pancreatic cancer (Panc-1); assay: Antiproliferative MTT assay, Panc-1; type: cell-based; conditions: Homo sapiens, Panc-1 pancreatic cancer cells, read-out: Antiproliferative activity IC50 ± SEM, Panc-1
Procedure: as §1

[3] = test system: four human cancer cell lines (A-549, MCF-7, Panc-1, HT-29); assay: Antiproliferative MTT assay, mean over the four cancer cell lines; type: cell-based; conditions: Homo sapiens, mean IC50 over A-549, MCF-7, Panc-1, HT-29
Procedure: as §1

[4] = test system: Caspase-3; assay: Caspase-3 activation assay in MCF-7; type: cell-based, human; conditions: for Caspase-3 Fold change: MCF-7, versus untreated control; for Caspase-3 Conc.: MCF-7 cancer cell line
Procedure: Compounds 8g and 8h were evaluated as caspase-3, 8 and Bax activators and as down-regulator of the anti-apoptotic protein Bcl2 against the MCF-7 breast cancer cell line.[40] Appendix A ^† contains more details.
Compounds 8g and 8h were evaluated as caspase-3 activators against the MCF-7 breast cancer cell line,[40] with results presented in Table 3. […] The compounds 8g and 8h increased the concentration of caspase-3 protein in the MCF-7 cancer cell line, showing levels that were 11 and 10 times higher than the untreated control and higher than staurosporine. […]
cancer cells, commercially available ELISA kits (Invitrogen) were used according to manufacturer’s instructions.
4.2.1.5. Caspase-3 activation assay
Allow all reagents to reach room temperature before use. Gently mix all liquid reagents prior to use. Determine the number of 8-well strips needed for the assay. Insert these in the frame(s) for current use. Add 100 μl of the Standard Diluent Buffer to the zero standard wells. Well(s) reserved for chromogen blank should be left empty. Add 100 μl of standards and controls or diluted samples to the appropriate microtiter wells. The sample dilution chosen should be optimized for each experimental system. Tap gently on side of plate to mix. Cover wells with plate cover and incubate for 2 hours at room temperature. Thoroughly aspirate or decant solution from wells and discard the liquid, Wash wells 4 times. Pipette 100 μl of Caspase-3 (Active) Detection Antibody solution into each well except the chromogen blank(s). Tap gently on the side of the plate to mix. Cover plate with plate cover and incubate for 1 hour at room temperature. Thoroughly aspirate or decant solution from wells and discard the liquid, Wash wells 4 times. Add 100 μl Anti-Rabbit IgG HRP Working Solution to each well except the chromogen blank(s). Prepare the working dilution as described in Preparing IgG HRP. Cover wells with the plate cover and incubate for 30 minutes at room temperature. Thoroughly aspirate or decant solution from wells and discard the liquid. Wash wells 4 times. Add 100 μl of Stabilized Chromogen to each well. The liquid in the wells will begin to turn blue. Incubate for 30 minutes at room temperature and in the dark. The incubation time for chromogen substrate is often determined by the microtiter plate reader used. Many plate readers have the capacity to record a maximum optical density (O.D.) of 2.0. The O.D. values should be monitored, and the substrate reaction stopped before the O.D. of the positive wells exceeds the limits of the instrument. The O.D. values at 450 nm can only be read after the Stop Solution has been added to each well. If using a reader that records only to 2.0 O.D., stopping the assay after […]
Add 100 μl of Stop Solution to each well. Tap side of plate gently to mix. The solution in the wells should change from blue to yellow. Read the absorbance of each well at 450 nm having blanked the plate reader against a chromogen blank composed of 100 μl each of Stabilized Chromogen and Stop Solution. Read the plate within 2 hours after adding the Stop Solution. Use a curve fitting software to generate the standard curve. A four-parameter algorithm provides the best standard curve fit. Read the concentrations for unknown samples and controls from the standard curve. Multiply value(s) obtained for sample(s) by the appropriate dilution factor to correct for the dilution in step 3. Samples producing signals greater than that of the highest standard should be diluted in Standard Diluent Buffer and reanalyzed. […]
Tubulin.). The absorbance of each microwell was read on a spectro-photometer at 450 nm. A standard curve is prepared from 7human Caspase-8 standard dilutions and human Caspase-8 concentration determined.
4.2.1.7. Bax activation assay

[5] = test system: Bax; assay: Bax level assay in MCF-7; type: cell-based, human; conditions: for Bax Fold change: MCF-7, versus untreated control; for Bax Conc.: MCF-7 cancer cell line
Procedure: Compounds 8g and 8h were evaluated as caspase-3, 8 and Bax activators and as down-regulator of the anti-apoptotic protein Bcl2 against the MCF-7 breast cancer cell line.[40] Appendix A ^† contains more details. […]
Bring all reagents, except the human Bax-α Standard, to room temperature for at least 30 minutes prior to opening. The human Bax-α Standard solution should not be left at room temperature for more than 10 minutes. All standards, controls and samples should be run in duplicate. Refer to the Assay Layout Sheet to determine the number of wells to be used and put any remaining wells with the desiccant back into the pouch and seal the ziploc. Store unused wells at 4 °C. Pipet 100 μL of Assay Buffer into the S0 (0 pg/mL standard) wells. Pipet 100 μL of Standards #1 through #6 into the appropriate wells. Pipet 100 μL of the Samples into the appropriate wells. Tap the plate gently to mix the contents. Seal the plate and incubate at room temperature on a plate shaker for 1 hour at ~500 rpm. Empty the contents of the wells and wash by adding 400 μL of wash solution to every well. Repeat the wash 4 more times for a total of 5 washes. After the final wash, empty or aspirate the wells and firmly tap the plate on a lint free paper towel to remove any remaining wash buffer.
Pipet 100 μL of yellow Antibody into each well, except the Blank. Seal the plate and incubate at room temperature on a plate shaker for 1 hour at ~500 rpm. Empty the contents of the wells and wash by adding 400 μL of wash solution to every well. Repeat the wash 4 more times for a total of 5 washes. After the final wash, empty or aspirate the wells and firmly tap the plate on a lint free paper towel to remove any remaining wash buffer. Add 100 μL of blue Conjugate to each well, except the Blank. Seal the plate and incubate at room temperature on a plate shaker for 30 minutes […]
Pipet 100 μL of Substrate Solution into each well. Incubate for 30 minutes at room temperature on a plate shaker at ~500 rpm. Pipet 100 μL Stop Solution to each well. Blank the plate reader against the Blank wells, read the optical density at 450 nm. Calculate the average net Optical Density (OD) bound for each standard and sample by subtracting the average Blank OD from the average OD for each standard and sample. Using linear graph paper, plot the Average Net OD for each standard versus Bax concentration in each standard. Approximate a straight line through the points.
The concentration of Bax in the unknowns can be determined by interpolation. […]
Remove plate cover and empty the wells. […]
Incubate the microwell strips at room temperature (18° to 25°C) for about 15 minutes, if available on a rotator set at 100 rpm.

COc1ccc(-n2cc(CSc3nc4ccccc4c(=O)n3-c3ccc(C)cc3)nn2)cc1 [Compound 8g, 2-(((1-(4-Methoxyphenyl)-1H-1,2,3-triazol-4-yl)methyl)thio)-3-(p-tolyl)quinazolin-4(3H)-one]
IC50 [1]: 20 ± 1 nM
IC50 [2]: 24 ± 1 nM
GI50 [3]: 22 nM
Caspase-3 Fold change [4]: 11
Caspase-3 Conc. [4]: 695 ± 5 pg/mL
Bax Fold change [5]: 39
Bax Conc. [5]: 315 pg/mL and 315 ± 9 pg/mL

Cc1ccc(-n2cc(CSc3nc4ccccc4c(=O)n3-c3ccc(C)cc3)nn2)cc1 [Compound 8h, 2-(((1-(p-Tolyl)-1H-1,2,3-triazol-4-yl)methyl)thio)-3-(p-tolyl)quinazolin-4(3H)-one]
IC50 [1]: 22 ± 1 nM
IC50 [2]: 26 ± 1 nM
GI50 [3]: 25 nM
Caspase-3 Fold change [4]: 10
Caspase-3 Conc. [4]: 650 ± 5 pg/mL
Bax Fold change [5]: 37
Bax Conc. [5]: 295 pg/mL and 295 ± 9 pg/mL

CN[C@@H]1C[C@H]2O[C@@](C)([C@@H]1OC)n1c3ccccc3c3c4c(c5c6ccccc6n2c5c31)C(=O)NC4 [Staurosporine, reference compound]
Caspase-3 Fold change [4]: 8
Caspase-3 Conc. [4]: 503 ± 4 pg/mL
Bax Fold change [5]: 35
Bax Conc. [5]: 280 ± 7 pg/mL
Bax Conc. ([5]; listed as staurosporine): 280 pg/mL

Source: PMC11618052, “Design, synthesis, and antiproliferative activity of new 1,2,3-triazole/quinazoline-4-one hybrids as dual EGFR/BRAF^V600E inhibitors” (RSC Advances, 2024)
